Data published in patent US10945978B2, “Treatment and diagnosis of melanoma” (The Rockefeller University, priority 2012, dated 2021).
Entries after “also recorded” stand apart in the source; their conditions may differ.

What was measured:
[1] = tested on: B16F10 mouse melanoma cells; assay: Subcutaneous B16F10 tumor growth in C57BL/6 mice; details: in chow: WO-2010-0138598 Ex. 9 10 or 100 mg/kg/day, SB742881 100 mg/kg/day
Description: Animals were palpated weekly for tumor formation, after which sizeable tumors were measured twice a week. Tumor volume was calculated as (small diameter)^2×(large diameter)/2.

[2] = tested on: MeWo, MeWo-LM2, HT-144, SK-Mel-2 and SK-Mel-334.2 human melanoma cells; assay: Trans-well matrigel cell invasion assay, melanoma cells; assay type: cell-based; details: 1 μM for 72 hours
Description: Cancer cells were serum-starved in 0.2% FBS DMEM-based media for 12 hours. Trans-well invasion chambers (354480, BD Biosciences, Bedford, Mass.) were pre-equilibrated prior to beginning the assay by adding 0.5 mL of starvation media to the top and bottom chambers. After 30 minutes, the media in the top chamber was removed, and 0.5 mL of media containing 1×10^5 cancer cells was added into each matrigel-coated trans-well insert and incubated at 37° C. for 24 hours. For neutralization antibody and/or recombinant protein experiments, antibody/recombinant protein was added to each well at the start of the assay at the following concentrations as indicated in the figures: 5-40 μg/mL anti-ApoE 1D7 (Heart Institute, University of Ottawa), 5-40 μg/mL anti-IgG (AB-108-C, R&D Systems, Minneapolis, Minn.), 100 μM recombinant human ApoE3 (4696, BioVision, Mountain View, Calif.), and 100 μM BSA (A2153, Sigma-Aldrich). Upon completion of the assay, matrigel-coated inserts were washed with PBS, the cells at the top side of each insert were scraped off, and the inserts were fixed in 4% paraformaldehyde for 15 minutes. The inserts were then cut out and mounted onto slides using VectaShield mounting medium containing DAPI (H-1000, Vector Laboratories, Burlingame, Calif.). The basal side of each insert was imaged using an inverted fluorescence microscope (Zeiss Axiovert 40 CFL) at 5× magnification, taking three representative images for each insert. The number of invaded cells was quantified using ImageJ (NIH).
The cell invasion assay was performed as previously described in detail (Pencheva et al., 2012) using a trans-well matrigel invasion chamber system (354480, BD Biosciences). In brief, various melanoma cells were cultured in the presence of DMSO, GW3965, T0901317, or Bexarotene at 1 μM for 56 hours, after which melanoma cells were switched to starvation media (0.2% FBS) for 16 hours in the presence of each drug. Following starvation, cells were seeded into matrigel-coated trans-well inserts, and the invasion assay was allowed to proceed for 24 hours at 37° C. For ApoE antibody neutralization experiments, 40 μg/mL 1D7 anti-ApoE blocking antibody (Heart Institute, University of Ottawa, Ottawa, Canada) or 40 t g/mL anti-IgG control antibody (AB-108-C, R&D Systems, Minneapolis, Minn.) was added to each trans-well insert at the start of the assay.
The cells were then serum starved for 16 hours in 0.2% FBS media in the presence of each corresponding drug or DMSO. Following serum starvation, the cells were subjected to the trans-well invasion assay using a matrigel invasion chamber system (354480, BD Biosciences). Invasion chambers were pre-equilibrated prior to the assay by adding 0.5 mL of starvation media to the top and bottom wells. Meanwhile, cancer cells were trypsinized and viable cells were counted using trypan blue. Cancer cells were then resuspended at a concentration of 2×10^5 cells/1 mL starvation media, and 0.5 mL of cell suspension, containing 1×10^5 cells, was seeded into each trans-well. The invasion assay was allowed to proceed for 24 hours at 37° C. […] Following fixation, the inserts were washed in PBS, cut out, and mounted onto slides using VectaShield mounting medium containing DAPI nuclear stain (H-1000, Vector Laboratories). The basal side of each insert was imaged using an inverted fluorescence microscope (Zeiss Axiovert 40 CFL) at 5× magnification, and the number of DAPI-positive cells was quantified using ImageJ.

ApoE = ApoE expression by qRT-PCR in human melanoma cells; assay type: cell-based; details: MeWo cells, 500 nM, 1 μM or 2 μM, 48 hours
Description: Total RNA was extracted from various cell lines using the miRvana kit (AM1560, Applied Biosystems, Austin, Tex.). The expression levels of mature miRNAs were quantified using the Taqman miRNA expression assay (4427975-0002228, Applied Biosystems). RNU44 was used as an endogenous control for normalization. For mRNA expression analyses, 600 ng of total RNA was reverse transcribed using the cDNA First-Strand Synthesis Kit (18080-051, Invitrogen), and roughly 200 ng of the resulting cDNA was then mixed with SYBR green PCR Master Mix (4309155, Applied Biosystems) and the appropriate primers. Each reaction was performed in quadruplicate, and mRNA expression was quantified by performing real-time PCR amplification using an ABI Prism 7900HT Real-Time PCR System (Applied Biosystems). GAPDH was used as an endogenous control for normalization. The following primers were used: […]
RNA was extracted from whole cell lysates using the Total RNA Purification Kit (17200, Norgen, Thorold, Canada). 600 ng of total RNA was then reverse transcribed into cDNA using the cDNA First-Strand Synthesis Kit (18080-051, Invitrogen), and quantitative real-time PCR amplification was performed as previously described (Pencheva et al., 2012) using an ABI Prism 7900HT Real-Time PCR System (Applied Biosystems, Austin, Tex.). Each PCR reaction was carried out in quadruplicates. Gene expression was normalized to GAPDH, which was used as an endogenous control.
For every sample, 600 ng of RNA was reverse transcribed into cDNA using the cDNA First-Strand Synthesis kit (Invitrogen). Approximately 200 ng of cDNA was mixed with SYBR® green PCR Master Mix and the corresponding forward and reverse primers specific for detection of human ApoE. Each reaction was carried out in quadruplicates, and ApoE mRNA expression levels were measured by quantitative real-time PCR amplification using an ABI Prism 7900HT Real-Time PCR System (Applied Biosystems). The relative ApoE expression was determined using the ΔΔCt method. GAPDH was used as an endogenous control for normalization purposes.

[3] = tested on: human umbilical vein endothelial cells (HUVEC's); assay: Endothelial recruitment assay (HUVEC migration towards melanoma cells); assay type: cell-based; details: MeWo, HT-144, SK-Mel-2, SK-Mel-334.2; 1 μM for 72 hours
Description: 5×10^4 cancer cells were seeded into 24-well plates approximately 24 hours prior to the start of the assay. HUVEC's were grown to 80% confluency and serum starved in EGM-2 media supplemented with 0.2% FBS for 16 hours. HUVEC's were then pulsed with Cell Tracker Red CMTPX dye (C34552, Invitrogen) for 45 minutes. Meanwhile, cancer cells were washed with PBS, 0.5 mL of 0.2% FBS EGM-2 media was added to each well, and a 3.0 μm HTS Fluoroblock insert (351151, BD Falcon, San Jose, Calif.) was placed into each well. 1×10^5 HUVEC's, resuspended in 0.5 mL of starvation media, were seeded into each trans-well insert, and the recruitment assay was allowed to proceed for 16-18 hours at 37° C. For neutralization antibody and/or recombinant protein experiments, antibody/protein was then added to each well at the appropriate concentration as indicated in the figures: 40 μg/mL anti-ApoE 1D7, 40 μg/mL anti-IgG, 100 μM rhApoE3, and 100 μM BSA. Upon completion of the assay, the inserts were processed and analyzed as described for the matrigel invasion assay above (See Matrigel Invasion Assay).
The endothelial recruitment assay was carried out as previously described (Pencheva et al., 2012; Png et al., 2012). Melanoma cells were treated with DMSO, GW3965, T0901317, or Bexarotene at 1 μM for 56 hours, after which 5×10^4 cells were seeded in a 24-well plate in the presence of each drug and allowed to attach for 16 hours prior to starting the assay. HUVEC cells were serum-starved overnight in EGM-2 media containing 0.2% FBS. The following day, 1×10^5 HUVEC cells were seeded into a 3.0 μm HTS Fluoroblock trans-well migration insert (351151, BD Falcon, San Jose, Calif.) fitted into each well containing cancer cells at the bottom. The HUVEC cells were allowed to migrate towards the cancer cells for 20 hours at 37° C., after which the inserts were processed as previously described (Pencheva et al., 2012). For ApoE antibody neutralization experiments, 40 μg/mL 1D7 anti-ApoE blocking antibody (Heart Institute, University of Ottawa, Ottawa, Canada) or 40 μg/mL anti-IgG control antibody (AB-108-C, R&D Systems, Minneapolis, Minn.) was added to each trans-well insert at the start of the assay.
Subsequently, 5×10^4 cancer cells were seeded into 24-well plates in the presence of each drug or DMSO and allowed to attach for 16 hours prior to starting the assay. Human umbilical vein endothelial cells (HUVEC cells) were serum-starved in 0.2% FBS-containing media overnight. The following day, 1×10^5 HUVEC cells were seeded into a 3.0 μm HTS Fluoroblock insert (351151, BD Falcon) fitted into each well containing the cancer cells at the bottom. The HUVEC cells were allowed to migrate towards the cancer cells for 20 hours, after which the inserts were washed in PBS, fixed in 4% PFA, labeled with DAPI, and mounted on slides. The basal side of each insert was imaged using an inverted fluorescence microscope (Zeiss Axiovert 40 CFL) at 5× magnification, and the number of DAPI-positive cells was quantified using ImageJ.

[4] = tested on: melanoma cells (MeWo, MeWo-LM2, HT-144, SK-Mel-334.2) and endothelial cells; assay: In vitro cell proliferation, viability and serum starvation assays; assay type: cell-based, human; details: MeWo, HT-144, SK-Mel-334.2; 1 μM, 5 days
Description: To determine the effects of miR-199a or miR-1908 over-expression and combinatorial LNA-induced miRNA inhibition on cell proliferation, 2.5×10^4 cells were seeded in triplicate in 6-well plates, and viable cells were counted after 5 days. […] Viable cells were counted after 8, 24, 48, 72, and 120 hours.
The number of viable cells was counter after 8, 16, and 24 hours.
To determine the effects of GW3965, T0901317, and Bexarotene on in vitro cell growth, 2.5×10^4 melanoma cells were seeded in triplicate in 6-well plates and cultured in the presence of DMSO, GW3965, T0901317, or Bexarotene at 1 μM each. After 5 days, the number of viable and dead cells was counted using the trypan blue dye (72-57-1, Sigma-Aldrich), which selectively labels dead cells.

[5] = tested on: B16F10 parental and DTIC-resistant cells; assay: Tumor growth by DTIC-sensitive and DTIC-resistant B16F10 cells; assay type: in vivo, mouse; details: dacarbazine 50 mg/kg, i.p., daily
Description: First, the cells were treated with 500 μg/mL DTIC for one week. Following this initial DTIC treatment, the remaining (˜10%) viable cells were allowed to recover for one week, after which 750 rag/mL of DTIC was added to the cell media for 5 days. Subsequent to this high-dose treatment, the cells were allowed to recover in the presence of low-dose DTIC (100 jag/mL) for one week. The cells were then continuously cultured in cell media containing 200 rag/mL DTIC for at least one month prior to grafting the cells into mice. DTIC was added to fresh cancer cell media every 3 days.

SMILES: CC(C)(O)c1cn(-c2ccc(-c3cc(F)c(CO)c(S(C)(=O)=O)c3)cc2F)c(C(C)(C)c2c(Cl)cccc2Cl)n1 [Compound 12]
- melanoma primary tumor growth [1]: significantly inhibited
- inhibition of in vitro cancer progression phenotypes (cell invasion, endothelial recruitment) ([2]; MeWo cells, relative to lower potency LXR agonists): more effective
- ApoE expression induction (ApoE; listed as WO-2010-0138598 Ex. 9): varied degrees of ApoE expression induction; also recorded: potently induce

SMILES: CC(C)(O)c1cn(-c2ccc(-c3cccc(S(C)(=O)=O)c3)cc2)c(C(C)(C)c2ccccc2Cl)n1 [Compound 38]
- ApoE expression induction (ApoE): varied degrees of ApoE expression induction

SMILES: Fc1ccc(-c2c3cccc(C(F)(F)F)c3nn2Cc2ccc(F)cc2Cl)cc1 [LXR-623 3]
- ApoE expression induction (ApoE): varied degrees of ApoE expression induction

SMILES: C=C(c1ccc(C(=O)O)cc1)c1cc2c(cc1C)C(C)(C)CCC2(C)C [bexarotene]
- ability of melanoma cells to recruit endothelial cells [3]: did not significantly affect
- ability of melanoma cells to invade through matrigel ([2]; MeWo, HT-144, SK-Mel-2, SK-Mel-334.2): suppressed invasion only in half of the melanoma lines tested
- cell proliferation or cell viability rates [4]: did not affect

SMILES: CN(C)/N=N/c1[nH]cnc1C(N)=O [dacarbazine]
- growth of the DTIC-sensitive parental line [5]: significantly suppressed
- tumor growth by B16F10 DTIC-resistant cells [5]: did not affect
